We go through 16 compounds from PubChem BioAssay (NCI).

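Protocol summary: plate cells (96-well), add compound at 5 concentrations, incubate 48 h, interpolate endpoints linearly. GI50: concentration for 50% inhibition of growth. TGI: total growth inhibition.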

Assay in all cases: NCI tumour cell line growth inhibition, 48 h
In assay [1] the test system is MDA-N.
Assay [2] concerns DMS 273 small cell lung.
Assay [3] relates to KM20L2 colon.
The subject of assay [4] is HOP-18 NSCLC.
In assay [5] the test system is RXF-631 renal.
The test system of assay [6] is LXFL 529 NSCLC.
In assay [7] the test system is DMS 114 small cell lung.
The subject of assay [8] is XF 498 CNS.
Assay [9] concerns SNB-78 CNS.
Assay [10] has as its system P388/ADR leukemia.
Assay [11] deals with SN12K1 renal.

Compound `COc1cc2c3cc1Oc1c(OC)c(OC)cc4c1C(=NCC4)Cc1ccc(cc1)Oc1cc(ccc1O)C[C@H]3N(C)CC2` yielded a TGI in [1] of 31 µM.
Turning to `CCC(=O)N1C(=O)OCC1C(C)C` (stereo not drawn), the TGI in [2], in assay [3], in assay [4], in [5], in assay [6] and in assay [7] was over 100 µM in each case. Also, the TGI in assay [8] and in [9] was over 100 µM throughout.
Take `O=C1C(=O)N(c2ccc(Cl)cc2)C(=O)C(=O)C1c1nc2ccccc2o1`: the TGI in [2], in assay [3], in assay [5], in assay [6], in [7] and in assay [8] was over 100 µM in each case. In [9], the TGI was over 100 µM.
`C[C@H]1/C(=C/C(=O)OCCN(C)C)CC[C@H]2[C@H]1C(=O)C[C@H]1C(C)(C)[C@@H](O)CC[C@]21C` displayed a TGI in assay [1] of over 100 µM.
For the compound `O=S(=O)([O-])c1ccc(N=Cc2ccccc2[O-])cc1.O=S(=O)([O-])c1ccc(N=Cc2ccccc2[O-])cc1.[Co+2]`, the GI50 is 85.5 µM in [4], 28.3 µM in assay [7], 53.5 µM in assay [8] and over 100 µM in assay [9]. Also, the TGI in [4], in [7], in assay [8] and in assay [9] was over 100 µM in each case.
As for `COC(OC)c1cc2c(cc1C=O)OCO2`, the TGI in assay [2], in assay [3], in assay [7] and in assay [9] was over 100 µM each time.
For `Cc1c2ccn(O)cc2c(C)c2c1nc1ccccc12`, the TGI in assay [2] is 31.1 µM; in [3], over 100 µM; in assay [10] it was over 42.2 µM; in [1] it was over 100 µM; in assay [4], 99.4 µM; in assay [5], over 100 µM. Further, the TGI in [6] was over 100 µM; in [7], 47.1 µM; in assay [8] it was 20.9 µM; in assay [11] it was 27.3 µM; in assay [9] it was over 69.6 µM.
Take `C[C@]12CCC(=O)C(OC(=O)c3ccc([N+](=O)[O-])cc3)=C1CCC2=O`: the TGI in assay [2], in [3], in assay [4], in assay [6], in assay [7] and in assay [9] was over 100 µM each time.
Turning to `COc1ccc(/C(=N\NC(=O)NN)C(c2ccc(OC)cc2)C2(O)C(=O)Nc3c(Cl)cc(Cl)cc32)cc1` (stereo not drawn), the TGI in assay [3], in assay [4], in assay [5], in assay [6], in assay [7] and in assay [8] was over 100 µM each time. The TGI in assay [9] was over 100 µM.
As for `Cc1ccc(-c2nc3ccccc3c(=O)n2NCC2(O)OCC(O)C(O)C2O)cc1` (stereo not drawn), the TGI in [2], in assay [3], in assay [6], in assay [7] and in assay [9] was over 100 µM in each case.
Take `O=C1CSC(=S)N1c1ccco1`: in assay [1], the TGI stood at 45.4 µM.
Turning to `N#CC(/C(CCC(=O)Nc1ccc(Cl)cc1)=N/NC(=O)c1cc2ccccc2cc1O)c1ccccc1` (stereo not drawn), the TGI in [3] is over 100 µM; in assay [4] it was 89.8 µM; in assay [6] it was over 100 µM; in assay [7], 87.7 µM; in assay [8], over 100 µM; in assay [9], over 100 µM.
For `COC(=O)c1ccccc1N(C(=O)c1ccccc1)c1ccccc1C`, the TGI in assay [2] is over 100 µM; in [3], over 100 µM; in assay [4], over 100 µM; in assay [6], over 100 µM; in [7] it was over 100 µM; in assay [8] it was 60.4 µM.
Take `Cc1n[nH]c(=S)n(C)c1=S`: the TGI in [2], in assay [3], in [4], in assay [5], in [6] and in assay [7] was over 100 µM each time. The TGI in assay [8] and in assay [9] was over 100 µM in each case.
As for `COc1cc(/C=C(\NC(=O)c2ccccc2)c2nc3ccc4c(c3[nH]2)C(=O)c2ccccc2C4=O)cc(OC)c1OC`, the TGI in assay [2], in assay [3], in assay [5], in assay [6], in [7] and in assay [8] was over 100 µM in each case. For the same compound, the TGI in [9] was over 100 µM.
On to `CCN(CC)CCCC(C)Nc1ccnc2cc(Cl)ccc12` (stereo not drawn), for which the TGI in assay [2] is 87 µM; in assay [3], 44.5 µM; in assay [1], 33.9 µM; in assay [6], over 100 µM; in assay [7] it was 56.4 µM; in assay [8], 32.6 µM. Also, the TGI in assay [9] was over 100 µM.
